These results are taken from ChEMBL document CHEMBL4346655, “Synthesis and biological activities of artemisinin-piperazine-dithiocarbamate derivatives” (Eur J Med Chem, 2019).

One assay relates to L02. The assay is described as follows: Cytotoxicity against human L02 cells incubated for 72 hrs by MTT assay. Type of assay: cell-based. Particulars: L02, 72 h. (In general: Formazan colour is commonly taken as a measure of viable cells.)
Assay [1] concerns SMMC-7721. The assay is described as follows: Cytotoxicity against human SMMC7721 cells incubated for 72 hrs by MTT assay. The conditions noted are these: SMMC-7721, 72 h. Type of assay: functional, cell-based.
The test system of assay [2] is SMMC-7721. In words: Induction of apoptosis in human SMMC7721 cells assessed as late apoptotic cells at 50 ug/ml incubated for 72 hrs by Annexin V-FITC/PI staining based flow cytometric analysis (reference value: 1.63 to 2.82%). Type of assay: functional. In general terms: A flow cytometer gives signals particle by particle.
The subject of assay [3] is SMMC-7721. The assay is described as follows: Induction of apoptosis in human SMMC7721 cells assessed as late apoptotic cells at 10 ug/ml incubated for 72 hrs by Annexin V-FITC/PI staining based flow cytometric analysis (reference value: 1.63 to 2.82%). Type of assay: functional.
Another assay deals with MCF-10A. The assay is described as follows: Cytotoxicity against human MCF10A cells incubated for 72 hrs by MTT assay. Type of assay: cell-based.
The test system of another assay is HCT-116. The assay is described as follows: Cytotoxicity against human HCT116 cells incubated for 72 hrs by MTT assay. Type of assay: functional, cell-based. The conditions noted are these: HCT-116, 72 h.
In a further assay the test system is CCD-18Co. In words: Cytotoxicity against human CCD-18Co cells incubated for 72 hrs by MTT assay. Type of assay: cell-based.
A further assay concerns DU-145. In words: Cytotoxicity against human DU145 cells incubated for 72 hrs by MTT assay. Type of assay: functional, cell-based. Particulars: DU-145, 72 h.
Assay [4] relates to SMMC-7721. The assay is described as follows: Induction of apoptosis in human SMMC7721 cells assessed as live cells at 1 ug/ml incubated for 72 hrs by Annexin V-FITC/PI staining based flow cytometric analysis (reference value: 94.81 to 96.55%). Type of assay: functional.
The test system of assay [5] is SMMC-7721. The assay is described as follows: Induction of apoptosis in human SMMC7721 cells assessed as early apoptotic cells at 1 ug/ml incubated for 72 hrs by Annexin V-FITC/PI staining based flow cytometric analysis (reference value: 1.31 to 1.65%). Type of assay: functional.
In assay [6] the test system is SMMC-7721. The assay is described as follows: Induction of apoptosis in human SMMC7721 cells assessed as necrotic cells at 1 ug/ml incubated for 72 hrs by Annexin V-FITC/PI staining based flow cytometric analysis (reference value: 0.52 to 0.72%). Type of assay: functional.
The subject of assay [7] is SMMC-7721. The assay is described as follows: Induction of apoptosis in human SMMC7721 cells assessed as late apoptotic cells at 1 ug/ml incubated for 72 hrs by Annexin V-FITC/PI staining based flow cytometric analysis (reference value: 1.63 to 2.82%). Type of assay: functional.
The test system of another assay is RWPE-1. The assay is described as follows: Cytotoxicity against human RWPE1 cells incubated for 72 hrs by MTT assay. Type of assay: cell-based. The conditions noted are these: RWPE-1, 72 h.
Assay [8] deals with SMMC-7721. In words: Induction of apoptosis in human SMMC7721 cells assessed as early apoptotic cells at 50 ug/ml incubated for 72 hrs by Annexin V-FITC/PI staining based flow cytometric analysis (reference value: 1.31 to 1.65%). Type of assay: functional.
Another assay has as its system MCF7. The assay is described as follows: Cytotoxicity against human MCF7 cells incubated for 72 hrs by MTT assay. Type of assay: functional, cell-based. The conditions noted are these: MCF7, 72 h.
The test system of assay [9] is SMMC-7721. The assay is described as follows: Induction of apoptosis in human SMMC7721 cells assessed as live cells at 10 ug/ml incubated for 72 hrs by Annexin V-FITC/PI staining based flow cytometric analysis (reference value: 94.81 to 96.55%). Type of assay: functional.
In assay [10] the test system is SMMC-7721. In words: Induction of apoptosis in human SMMC7721 cells assessed as early apoptotic cells at 10 ug/ml incubated for 72 hrs by Annexin V-FITC/PI staining based flow cytometric analysis (reference value: 1.31 to 1.65%). Type of assay: functional.
Assay [11] deals with SMMC-7721. In words: Induction of apoptosis in human SMMC7721 cells assessed as live cells at 50 ug/ml incubated for 72 hrs by Annexin V-FITC/PI staining based flow cytometric analysis (reference value: 94.81 to 96.55%). Type of assay: functional.
Assay [12] relates to SMMC-7721. The assay is described as follows: Induction of apoptosis in human SMMC7721 cells assessed as necrotic cells at 10 ug/ml incubated for 72 hrs by Annexin V-FITC/PI staining based flow cytometric analysis (reference value: 0.52 to 0.72%). Type of assay: functional.
Assay [13] relates to SMMC-7721. The assay is described as follows: Induction of apoptosis in human SMMC7721 cells assessed as necrotic cells at 50 ug/ml incubated for 72 hrs by Annexin V-FITC/PI staining based flow cytometric analysis (reference value: 0.52 to 0.72%). Type of assay: functional.

One may read the IC50 as the concentration at which inhibition is half-maximal. Low values mean higher potency, high ones lower potency. Consider `C[C@H]1[C@H](N2CCN(C(=S)SCc3ccccc3)CC2)O[C@@H]2O[C@@]3(C)CC[C@H]4[C@H](C)CC[C@@H]1[C@@]24OO3`, for which the IC50 is 300 nM in the assay with L02 and 26 nM in the assay with SMMC-7721 [1].

Take `Cc1ccc(CSC(=S)N2CCN([C@@H]3O[C@@H]4O[C@@]5(C)CC[C@H]6[C@H](C)CC[C@@H]([C@H]3C)[C@@]46OO5)CC2)cc1`: the concentration for half-maximal inhibition (IC50) with L02 was determined as 230 nM; in the assay on SMMC-7721 [1], 10.2 nM.

Turning to `C[C@H]1[C@H](N2CCN(C(=S)SCc3ccc4ccccc4c3)CC2)O[C@@H]2O[C@@]3(C)CC[C@H]4[C@H](C)CC[C@@H]1[C@@]24OO3`, the half-inhibitory concentration (IC50) was 160 nM with L02 and 24.3 nM in the assay on SMMC-7721 [1].

Regarding `C[C@H]1[C@H](N2CCN(C(=S)SCc3ccc(Br)cc3)CC2)O[C@@H]2O[C@@]3(C)CC[C@H]4[C@H](C)CC[C@@H]1[C@@]24OO3`, the IC50 came out at 150 nM in the assay on L02 and 7 nM in the assay on SMMC-7721 [1].

For the molecule `C[C@H]1[C@H](N2CCN(C(=S)SCc3ccc([N+](=O)[O-])cc3)CC2)O[C@@H]2O[C@@]3(C)CC[C@H]4[C@H](C)CC[C@@H]1[C@@]24OO3`, the IC50 is 170 nM with L02 and 16.7 nM with SMMC-7721 [1].

Consider `C[C@H]1[C@H](N2CCN(C(=S)SCC(=O)OCc3ccccc3)CC2)O[C@@H]2O[C@@]3(C)CC[C@H]4[C@H](C)CC[C@@H]1[C@@]24OO3`, for which the IC50 in the assay with L02 came out at 150 nM; in the assay with SMMC-7721 [1] it was 33.2 nM.

Turning to `C[C@H]1[C@H](N2CCN(C(=S)SCc3ccccc3Cl)CC2)O[C@@H]2O[C@@]3(C)CC[C@H]4[C@H](C)CC[C@@H]1[C@@]24OO3`, the IC50 in the assay with L02 amounted to 200 nM; with SMMC-7721 [1], 23.7 nM.

On to `CCCCCSC(=S)N1CCN([C@@H]2O[C@@H]3O[C@@]4(C)CC[C@H]5[C@H](C)CC[C@@H]([C@H]2C)[C@@]35OO4)CC1`, for which the IC50 in the assay on L02 was found to be 180 nM; with SMMC-7721 [1], 37.1 nM.

For `C[C@H]1[C@H](N2CCN(C(=S)SCc3ccc(Cl)cc3)CC2)O[C@@H]2O[C@@]3(C)CC[C@H]4[C@H](C)CC[C@@H]1[C@@]24OO3`, the IC50 with L02 was 170 nM; in the assay on SMMC-7721 [1], 28.4 nM.

In the case of `Cc1ccccc1CSC(=S)N1CCN([C@@H]2O[C@@H]3O[C@@]4(C)CC[C@H]5[C@H](C)CC[C@@H]([C@H]2C)[C@@]35OO4)CC1`, the IC50 was found to be 250 nM in the assay with L02 and 11.4 nM in the assay with SMMC-7721 [1].

Turning to `C[C@H]1[C@H](N2CCN(C(=S)SCc3ccc(C#N)cc3)CC2)O[C@@H]2O[C@@]3(C)CC[C@H]4[C@H](C)CC[C@@H]1[C@@]24OO3`, the Activity in the assay with SMMC-7721 [2] is recorded as 21.86 - 24.63%; in the assay with SMMC-7721 [3] it was 12.36 - 14.62%; in the assay with SMMC-7721 [4], 61.22 - 63.68%; in the assay on SMMC-7721 [5], 26.43 - 27.05%; in the assay with SMMC-7721 [6], 2.2 - 2.98%; in the assay on SMMC-7721 [7], 6.72 - 9.36%. The Activity with SMMC-7721 [8] is 45.82 - 46.69%; in the assay on SMMC-7721 [9] it was 50.41 - 53.94%; with SMMC-7721 [10], 30.54 - 31.3%; with SMMC-7721 [11] it was 28.05 - 29.95%; in the assay on SMMC-7721 [12], 3.07 - 4.04%; with SMMC-7721 [13], 1.5 - 1.77%. The IC50 was determined as 180 nM in the assay on L02; 22.4 nM in the assay with MCF-10A; 40.2 nM with HCT-116; 40.6 nM with CCD-18Co; 6.3 nM in the assay on DU-145; 2.5 nM with SMMC-7721 [1]. For the same molecule, the values for the IC50 in the assay with RWPE-1 and in the assay on MCF7 were 10.5 nM and 13.5 nM, respectively.

For the molecule `CCCCCCCCCCCCCCCCCCSC(=S)N1CCN([C@@H]2O[C@@H]3O[C@@]4(C)CC[C@H]5[C@H](C)CC[C@@H]([C@H]2C)[C@@]35OO4)CC1`, the IC50 in the assay on L02 worked out at 130 nM; in the assay with SMMC-7721 [1], 16 nM.

`C[C@H]1[C@@H](O)O[C@@H]2O[C@@]3(C)CC[C@H]4[C@H](C)CC[C@@H]1[C@@]24OO3` [ARTENIMOL]: the IC50 with L02 is 360 nM; in the assay with SMMC-7721 [1], > 100 nM.

Take `Nc1ccn([C@@H]2O[C@H](CO)[C@@H](O)[C@@H]2O)c(=O)n1` [CYTARABINE]: the figures for the concentration for half-maximal inhibition (IC50) in the assay with L02 and in the assay on SMMC-7721 [1] were 210 nM and 27.1 nM, respectively.

On to `CC[C@]1(O)C[C@H]2CN(CCc3c([nH]c4ccccc34)[C@@](C(=O)OC)(c3cc4c(cc3OC)N(C=O)[C@H]3[C@@](O)(C(=O)OC)[C@H](OC(C)=O)[C@]5(CC)C=CCN6CC[C@]43[C@@H]65)C2)C1` [VINCRISTINE], for which the IC50 stood at 60 nM in the assay with L02 and 10.3 nM in the assay with SMMC-7721 [1].
